Measurements published in ChEMBL document CHEMBL3044741, “Synthesis of novel biologically active methylene derivatives of sydnones” (Med Chem Res, 2013).
≈ marks a conversion by molar mass, not a printed value.

What was measured:
Type in all cases: functional
[1] = system: MDA-MB-468; test: Cytotoxicity against human MDA-MB-468 assessed as cell growth at high concentration
[2] = system: T47D; test: Cytotoxicity against human T47D assessed as cell growth at high concentration
[3] = system: BT-549; test: Cytotoxicity against human BT549 assessed as cell growth at high concentration
[4] = system: Hs-578T; test: Cytotoxicity against human Hs 578T assessed as cell growth at high concentration
[5] = system: MDA-MB-231; test: Cytotoxicity against human MDA-MB-231 assessed as cell growth at high concentration
[6] = system: DU-145; test: Cytotoxicity against human DU145 assessed as cell growth at high concentration
[7] = system: MCF7; test: Cytotoxicity against human MCF7 assessed as cell growth at high concentration
[8] = system: PC-3; test: Cytotoxicity against human PC3 assessed as cell growth at high concentration
[9] = system: UO-31; test: Cytotoxicity against human UO31 assessed as cell growth at high concentration
[10] = system: TK-10; test: Cytotoxicity against human TK10 assessed as cell growth at high concentration
[11] = system: SN12C; test: Cytotoxicity against human SN12C assessed as cell growth at high concentration
[12] = system: CAKI-1; test: Cytotoxicity against human Caki1 assessed as cell growth at high concentration
[13] = system: RXF 393; test: Cytotoxicity against human RXF393 assessed as cell growth at high concentration
[14] = system: A498; test: Cytotoxicity against human A498 assessed as cell growth at high concentration
[15] = system: 786-0; test: Cytotoxicity against human 786-0 assessed as cell growth at high concentration
[16] = system: SK-OV-3; test: Cytotoxicity against human SKOV3 assessed as cell growth at high concentration
[17] = Cytotoxicity against human NCI-ADR-RES assessed as cell growth at high concentration
[18] = system: OVCAR-8; test: Cytotoxicity against human OVCAR8 assessed as cell growth at high concentration
[19] = system: OVCAR-4; test: Cytotoxicity against human OVCAR4 assessed as cell growth at high concentration
[20] = system: OVCAR-3; test: Cytotoxicity against human OVCAR3 assessed as cell growth at high concentration
[21] = system: IGROV-1; test: Cytotoxicity against human IGROV1 assessed as cell growth at high concentration
[22] = system: UACC-257; test: Cytotoxicity against human UACC257 assessed as cell growth at high concentration
[23] = system: UACC-62; test: Cytotoxicity against human UACC62 assessed as cell growth at high concentration
[24] = system: SK-MEL-28; test: Cytotoxicity against human SK-MEL-28 assessed as cell growth at high concentration
[25] = system: SK-MEL-5; test: Cytotoxicity against human SK-MEL-5 assessed as cell growth at high concentration
[26] = system: SK-MEL-2; test: Cytotoxicity against human SK-MEL-2 assessed as cell growth at high concentration
[27] = system: MDA-MB-435; test: Cytotoxicity against human MDA-MB-435 assessed as cell growth at high concentration
[28] = system: M14; test: Cytotoxicity against human M14 assessed as cell growth at high concentration
[29] = system: Malme-3M; test: Cytotoxicity against human MALME-3M assessed as cell growth at high concentration
[30] = system: LOX IMVI; test: Cytotoxicity against human LOXIMVI assessed as cell growth at high concentration
[31] = system: SNB-75; test: Cytotoxicity against human SNB75 assessed as cell growth at high concentration
[32] = system: U-251; test: Cytotoxicity against human U251 assessed as cell growth at high concentration
[33] = system: SNB-19; test: Cytotoxicity against human SNB19 assessed as cell growth at high concentration
[34] = system: SF-539; test: Cytotoxicity against human SF539 assessed as cell growth at high concentration
[35] = system: NCI-H460; test: Cytotoxicity against human NCI-H460 assessed as cell growth at high concentration
[36] = system: NCI-H23; test: Cytotoxicity against human NCI-H23 assessed as cell growth at high concentration
[37] = system: NCI-H226; test: Cytotoxicity against human NCI-H226 assessed as cell growth at high concentration
[38] = system: HOP-62; test: Cytotoxicity against human HOP62 assessed as cell growth at high concentration
[39] = system: EKVX; test: Cytotoxicity against human EKVX assessed as cell growth at high concentration
[40] = system: A549; test: Cytotoxicity against human A549 assessed as cell growth at high concentration
[41] = system: RPMI-8226; test: Cytotoxicity against human RPMI8226 assessed as cell growth at high concentration
[42] = system: SR; test: Cytotoxicity against human SR assessed as cell growth at high concentration
[43] = system: MOLT-4; test: Cytotoxicity against human MOLT4 assessed as cell growth at high concentration
[44] = system: K562; test: Cytotoxicity against human K562 assessed as cell growth at high concentration
[45] = system: CCRF-CEM; test: Cytotoxicity against human CCRF-CEM assessed as cell growth at high concentration
[46] = system: HL-60(TB); test: Cytotoxicity against human HL-60(TB) assessed as cell growth at high concentration
[47] = system: SF-295; test: Cytotoxicity against human SF295 assessed as cell growth at high concentration
[48] = system: SF-268; test: Cytotoxicity against human SF268 assessed as cell growth at high concentration
[49] = system: SW-620; test: Cytotoxicity against human SW620 assessed as cell growth at high concentration
[50] = system: KM12; test: Cytotoxicity against human KM12 assessed as cell growth at high concentration
[51] = system: HCT-15; test: Cytotoxicity against human HCT15 assessed as cell growth at high concentration
[52] = system: HT-29; test: Cytotoxicity against human HT-29 assessed as cell growth at high concentration
[53] = system: HCC 2998; test: Cytotoxicity against human HCC2998 assessed as cell growth at high concentration
[54] = system: HCT-116; test: Cytotoxicity against human HCT116 assessed as cell growth at high concentration
[55] = system: COLO 205; test: Cytotoxicity against human COLO205 assessed as cell growth at high concentration
[56] = system: NCI-H522; test: Cytotoxicity against human NCI-H522 assessed as cell growth at high concentration
[57] = system: NCI-H322M; test: Cytotoxicity against human NCI-H322M assessed as cell growth at high concentration
[58] = system: Aspergillus niger; test: Antifungal activity against Aspergillus niger MTCC 282
[59] = system: Aspergillus clavatus; test: Antifungal activity against Aspergillus clavatus MTCC 1323
[60] = system: Candida albicans; test: Antifungal activity against Candida albicans MTCC 227
[61] = system: Aspergillus niger; test: Antifungal activity against Aspergillus niger MTCC 282 at 250 ug/ml after 74 hrs by Kirby-Bauer method; conditions: MTCC 282, 74 h, read-out: IZ
[62] = system: Aspergillus clavatus; test: Antifungal activity against Aspergillus clavatus MTCC 1323 at 250 ug/ml after 74 hrs by Kirby-Bauer method; conditions: MTCC 1323, 74 h, read-out: IZ
[63] = system: Candida albicans; test: Antifungal activity against Candida albicans MTCC 227 at 250 ug/ml after 74 hrs by Kirby-Bauer method; conditions: MTCC 227, 74 h, read-out: IZ
[64] = system: Pseudomonas aeruginosa; test: Antibacterial activity against Pseudomonas aeruginosa MTCC 424 after 24 hrs by broth dilution method; conditions: MTCC 424, 24 h
[65] = system: Streptococcus pyogenes; test: Antibacterial activity against Streptococcus pyogenes MTCC 442 after 24 hrs by broth dilution method; conditions: MTCC 442, 24 h
[66] = system: Escherichia coli; test: Antibacterial activity against Escherichia coli MTCC 443 after 24 hrs by broth dilution method; conditions: MTCC 443, 24 h
[67] = system: Staphylococcus aureus; test: Antibacterial activity against Staphylococcus aureus MTCC 96 after 24 hrs by broth dilution method; conditions: MTCC 96, 24 h
[68] = system: Pseudomonas aeruginosa; test: Antibacterial activity against Pseudomonas aeruginosa MTCC 424 at 250 ug/ml after 24 hrs by Kirby-Bauer method; conditions: MTCC 424, 24 h, read-out: IZ
[69] = system: Escherichia coli; test: Antibacterial activity against Escherichia coli MTCC 443 at 250 ug/ml after 24 hrs by Kirby-Bauer method; conditions: MTCC 443, 24 h, read-out: IZ
[70] = system: Streptococcus pyogenes; test: Antibacterial activity against Streptococcus pyogenes MTCC 442 at 250 ug/ml after 24 hrs by Kirby-Bauer method; conditions: MTCC 442, 24 h, read-out: IZ
[71] = system: Staphylococcus aureus; test: Antibacterial activity against Staphylococcus aureus MTCC 96 at 250 ug/ml after 24 hrs by Kirby-Bauer method; conditions: MTCC 96, 24 h, read-out: IZ

## [O-]c1on[n+](-c2ccc(Cc3ccc(-[n+]4noc([O-])c4CN4CCOCC4)cc3)cc2)c1CN1CCOCC1
[1]
  Activity: 11.42%
[2]
  Activity: 56.09%
[3]
  Activity: 60.72%
[4]
  Activity: 64.02%
[5]
  Activity: 60.45%
[6]
  Activity: 100.94%
[7]
  Activity: 45.59%
[8]
  Activity: 56.45%
[9]
  Activity: 44.31%
[10]
  Activity: 74.48%
[11]
  Activity: 80.32%
[12]
  Activity: 49.27%
[13]
  Activity: 72.21%
[14]
  Activity: 53.74%
[15]
  Activity: 73.96%
[16]
  Activity: 87.98%
[17]
  Activity: 63.42%
[18]
  Activity: 80.93%
[19]
  Activity: 53.91%
[20]
  Activity: 89.12%
[21]
  Activity: 62.3%
[22]
  Activity: 75.14%
[23]
  Activity: 53.38%
[24]
  Activity: 74.89%
[25]
  Activity: 53.16%
[26]
  Activity: 78.61%
[27]
  Activity: 4.71%
[28]
  Activity: 69.54%
[29]
  Activity: 65.64%
[30]
  Activity: 65.03%
[31]
  Activity: 72.63%
[32]
  Activity: 62.81%
[33]
  Activity: 86.48%
[34]
  Activity: 77.5%
[35]
  Activity: 82.89%
[36]
  Activity: 62.15%
[37]
  Activity: 85.46%
[38]
  Activity: 77%
[39]
  Activity: 69.86%
[40]
  Activity: 69.06%
[41]
  Activity: 60.49%
[42]
  Activity: 23.05%
[43]
  Activity: 68.41%
[44]
  Activity: 26.39%
[45]
  Activity: 63.93%
[46]
  Activity: 86.39%
[47]
  Activity: 44.14%
[48]
  Activity: 78.33%
[49]
  Activity: 67.72%
[50]
  Activity: 54.32%
[51]
  Activity: 78.57%
[52]
  Activity: 89.7%
[53]
  Activity: 80.48%
[54]
  Activity: 63.75%
[55]
  Activity: 99.94%
[56]
  Activity: 36.96%
[57]
  Activity: 82.54%
[58]
  MIC: 250 mg/L (≈ 468 µM)
[59]
  MIC: 500 mg/L (≈ 935 µM)
[60]
  MIC: 500 mg/L (≈ 935 µM)
[61]
  zone of inhibition at 250 µg/mL: 23 mm
[62]
  zone of inhibition at 250 µg/mL: 24 mm
[63]
  zone of inhibition at 250 µg/mL: 23 mm
[64]
  MIC: 125 mg/L (≈ 234 µM)
[65]
  MIC: 250 mg/L (≈ 468 µM)
[66]
  MIC: 250 mg/L (≈ 468 µM)
[67]
  MIC: 100 mg/L (≈ 187 µM)
[68]
  zone of inhibition at 250 µg/mL: 21 mm
[69]
  zone of inhibition at 250 µg/mL: 18 mm
[70]
  zone of inhibition at 250 µg/mL: 19 mm
[71]
  zone of inhibition at 250 µg/mL: 21 mm
